Laboratory results taken from patent publication US20230113037A1 (Bayer Aktiengesellschaft, priority 2019, published 2023).

Columns and labels:
AHR [1] = target: T1, AHR (Mus musculus, UniProt P30561); test: In vitro assay 3: antagonism in mouse cell line (AHR transactivation, firefly luciferase reporter, kynurenic acid prestimulated); format: cell-based; details: Hepa 1c1c7 cells, 200 μM kynurenic acid, 20 hours, firefly luciferase reporter, read-out: AHR Antagonism Mouse IC50
T1 sequence (P30561 1-848 P471L/N533S/M589L): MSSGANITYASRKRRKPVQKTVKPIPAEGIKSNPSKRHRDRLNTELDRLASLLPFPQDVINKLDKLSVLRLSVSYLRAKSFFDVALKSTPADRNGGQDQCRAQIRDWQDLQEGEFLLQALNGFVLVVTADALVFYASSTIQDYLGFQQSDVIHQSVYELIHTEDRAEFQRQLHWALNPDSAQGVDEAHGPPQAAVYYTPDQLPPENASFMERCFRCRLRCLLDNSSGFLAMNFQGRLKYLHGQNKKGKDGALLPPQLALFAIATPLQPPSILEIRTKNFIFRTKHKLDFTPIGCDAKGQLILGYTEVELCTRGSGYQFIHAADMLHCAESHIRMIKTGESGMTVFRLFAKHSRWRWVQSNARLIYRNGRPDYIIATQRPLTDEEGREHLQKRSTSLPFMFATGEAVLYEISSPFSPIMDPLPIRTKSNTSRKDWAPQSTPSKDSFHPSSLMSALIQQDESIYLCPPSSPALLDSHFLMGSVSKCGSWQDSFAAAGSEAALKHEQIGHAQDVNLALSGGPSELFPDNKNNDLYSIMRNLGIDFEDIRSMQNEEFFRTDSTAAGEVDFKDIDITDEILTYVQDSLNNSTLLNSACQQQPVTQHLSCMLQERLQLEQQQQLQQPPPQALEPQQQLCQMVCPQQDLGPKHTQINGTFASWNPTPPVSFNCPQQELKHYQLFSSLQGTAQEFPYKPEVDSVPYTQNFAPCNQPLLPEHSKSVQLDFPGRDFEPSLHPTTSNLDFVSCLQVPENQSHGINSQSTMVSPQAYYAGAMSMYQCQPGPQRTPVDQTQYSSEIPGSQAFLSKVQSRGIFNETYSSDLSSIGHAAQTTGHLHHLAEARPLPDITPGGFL
In short: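 Luminescence from an AHR-dependent DRE-luciferase reporter, stably integrated in mouse cells, quantifies blockade of kynurenic acid-driven activation. Unstimulated cells mark maximal inhibition; normalization uses both control types, and multiply tested compounds carry mean or median values.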

AHR [2] = target: T2, AHR (Homo sapiens, UniProt P35869); test: In vitro assay 1: antagonism in human cell line (AHR transactivation, firefly luciferase reporter, kynurenic acid prestimulated); format: cell-based; details: AHR Antagonism Human IC50 [M], firefly luciferase reporter
T2 construct: U87 MG glioblastoma cells (ATCC #HTB-14) endogenously expressing AHR; endogenous in cells; host or cells: U87 MG glioblastoma cells (ATCC #HTB-14)
T2 sequence (P35869 11-848): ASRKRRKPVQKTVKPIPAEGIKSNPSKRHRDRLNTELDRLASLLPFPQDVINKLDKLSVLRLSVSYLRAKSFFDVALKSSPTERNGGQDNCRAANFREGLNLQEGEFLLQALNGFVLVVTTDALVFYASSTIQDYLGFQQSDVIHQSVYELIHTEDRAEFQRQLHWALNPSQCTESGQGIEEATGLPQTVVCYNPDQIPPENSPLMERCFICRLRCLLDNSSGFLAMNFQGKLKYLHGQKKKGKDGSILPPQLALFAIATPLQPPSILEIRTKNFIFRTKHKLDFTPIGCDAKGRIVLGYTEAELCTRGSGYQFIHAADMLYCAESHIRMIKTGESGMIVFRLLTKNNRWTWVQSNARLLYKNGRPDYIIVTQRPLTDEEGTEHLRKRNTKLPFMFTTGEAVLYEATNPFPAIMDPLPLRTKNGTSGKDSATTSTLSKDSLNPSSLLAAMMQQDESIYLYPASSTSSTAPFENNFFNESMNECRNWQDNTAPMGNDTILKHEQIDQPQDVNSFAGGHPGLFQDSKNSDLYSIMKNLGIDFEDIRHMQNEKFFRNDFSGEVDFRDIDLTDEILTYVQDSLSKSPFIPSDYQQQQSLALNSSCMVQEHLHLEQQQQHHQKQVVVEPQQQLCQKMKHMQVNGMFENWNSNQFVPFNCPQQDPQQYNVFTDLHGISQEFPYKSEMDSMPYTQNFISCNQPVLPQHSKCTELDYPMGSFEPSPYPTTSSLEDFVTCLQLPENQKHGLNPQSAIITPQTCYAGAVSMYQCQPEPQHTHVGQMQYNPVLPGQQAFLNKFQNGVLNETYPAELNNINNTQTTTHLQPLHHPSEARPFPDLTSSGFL
In short: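 Antagonism is measured against kynurenic acid prestimulation in U87 MG glioblastoma cells carrying stable DRE-luciferase and Renilla reporters. Positive inhibition control: 150 μM kynurenic acid with 5 μM staurosporine. Values are normalized to controls; repeats are averaged or given as medians.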

| SMILES | IC50 (AHR [1]) [nM] | IC50 (AHR [2]) [M] |
| --- | --- | --- |
| Cc1c(-c2nc3c4cccc(F)c4nc(N[C@@H]4CNCCNC4=O)n3n2)cnn1C [Example 969, (6R)-6-{[2-(1,5-dimethyl-1H-pyrazol-4-yl)-7-fluoro[1,2,4]triazolo[1,5-c]quinazolin-5-yl]amino}-1,4-diazepan-5-one] | 298 | 6.3e-07 |
| CC(C)n1cc(-c2nc3c4cccc(F)c4nc(N[C@@H]4CNCCNC4=O)n3n2)cn1 [Example 971, (6R)-6-({7-fluoro-2-[1-(propan-2-yl)-1H-pyrazol-4-yl][1,2,4]triazolo[1,5-c]quinazolin-5-yl}amino)-1,4-diazepan-5-one] | 286 | 7.72e-07 |
| O=C1NCCNC[C@H]1Nc1nc2c(Br)cccc2c2nc(-c3cn[nH]c3)nn12 [Example 976, (6R)-6-{[7-bromo-2-(1H-pyrazol-4-yl)[1,2,4]triazolo[1,5-c]quinazolin-5-yl]amino}-1,4-diazepan-5-one] | 4640 | 3.11e-06 |
| O=C1NCCNC[C@H]1Nc1nc2c(Br)cccc2c2nc(-c3cnn(CC4CCC4)c3)nn12 [Example 982, (6R)-6-({7-bromo-2-[1-(cyclobutylmethyl)-1H-pyrazol-4-yl][1,2,4]triazolo[1,5-c]quinazolin-5-yl}amino)-1,4-diazepan-5-one] | 20.6 | 9.42e-09 |
| Cn1cc(-c2nc3c4cccc(Br)c4nc(N[C@H]4CNCCNC4=O)n3n2)cn1 [Example 983, (6S)-6-{[7-bromo-2-(1-methyl-1H-pyrazol-4-yl)[1,2,4]triazolo[1,5-c]quinazolin-5-yl]amino}-1,4-diazepan-5-one] | 189 | 8.18e-08 |
| CC(C)n1cc(-c2nc3c4cccc(Br)c4nc(N[C@H]4CNCCNC4=O)n3n2)cn1 [Example 984, (6S)-6-({7-bromo-2-[1-(propan-2-yl)-1H-pyrazol-4-yl][1,2,4]triazolo[1,5-c]quinazolin-5-yl}amino)-1,4-diazepan-5-one] | 41.2 | 3.84e-08 |
| C[C@@H](Nc1nc2c(Br)cccc2c2nc(-c3cnn(C)c3)nn12)C(=O)N1CCNCC1 [Example 985, (2R)-2-{[7-bromo-2-(1-methyl-1H-pyrazol-4-yl)[1,2,4]triazolo[1,5-c]quinazolin-5-yl]amino}-1-(piperazin-1-yl)propan-1-one hydrogen chloride (1/1)] | 95 | 6.49e-08 |
| CNCCNC(=O)[C@@H](C)Nc1nc2c(Br)cccc2c2nc(-c3cnn(C)c3)nn12 [Example 989, N^2-[7-bromo-2-(1-methyl-1H-pyrazol-4-yl)[1,2,4]triazolo[1,5-c]quinazolin-5-yl]-N-[2-(methylamino)ethyl]-D-alaninamide] | 399 | 5.18e-07 |
| CNCCNC(=O)[C@@H](C)Nc1nc2ccccc2c2nc(-c3ccc(OC)cc3)nn12 [Example 990, N^2-[2-(4-methoxyphenyl)[1,2,4]triazolo[1,5-c]quinazolin-5-yl]-N-[2-(methylamino)ethyl]-D-alaninamide-hydroxy chloride (1/1)] | 73.6 | 4.29e-08 |
| CNCCNC(=O)[C@@H](C)Nc1nc2c(Br)cccc2c2nc(-c3cnn(C)c3)nn12 [Example 991, N^2-[7-bromo-2-(1-methyl-1H-pyrazol-4-yl)[1,2,4]triazolo[1,5-c]quinazolin-5-yl]-N-[2-(methylamino)ethyl]-D-alaninamide-hydrogen chloride (1/1)] | 76.6 | 3.13e-08 |
| C[C@@H](Nc1nc2c(Br)cccc2c2nc(-c3cnn(C)c3)nn12)C(=O)NCCN1CCNCC1 [Example 993, N^2-[7-bromo-2-(1-methyl-1H-pyrazol-4-yl)[1,2,4]triazolo[1,5-c]quinazolin-5-yl]-N-[2-(piperazin-1-yl)ethyl]-D-alaninamide-hydrogen chloride (1/2)] | 4590 | 5.88e-07 |

Compounds with a lower IC50 (AHR [1]), results first:

| IC50 (AHR [1]) [nM] | IC50 (AHR [2]) [M] | SMILES |
| --- | --- | --- |
| 7.12 | 3.09e-08 | COc1ccc(-c2nc3c4cccc(Br)c4nc(N[C@H]4CNCCNC4=O)n3n2)cc1 [Example 972, (6S)-6-{[7-bromo-2-(4-methoxyphenyl)[1,2,4]triazolo[1,5-c]quinazolin-5-yl]amino}-1,4-diazepan-5-one] |
| 1.86 | 8.12e-10 | CCn1cc(-c2nc3c4cccc(Br)c4nc(N[C@@H]4CNCCNC4=O)n3n2)c(C)n1 [Example 974] |
| 4.24 | 8.67e-10 | Cc1nn(C)cc1-c1nc2c3cccc(C(F)(F)F)c3nc(N[C@@H]3CNCCNC3=O)n2n1 [Example 975, (6R)-6-{[2-(1,3-dimethyl-1H-pyrazol-4-yl)-7-(trifluoromethyl)[1,2,4]triazolo[1,5-c]quinazolin-5-yl]amino}-1,4-diazepan-5-one] |
| 1.34 | 2.03e-09 | O=C1NCCNC[C@H]1Nc1nc2c(Br)cccc2c2nc(-c3cnn(C(F)F)c3)nn12 [Example 978, (6R)-6-({7-bromo-2-[1-(difluoromethyl)-1H-pyrazol-4-yl][1,2,4]triazolo[1,5-c]quinazolin-5-yl}amino)-1,4-diazepan-5-one] |
| 10.5 | 2.13e-08 | Cc1c(-c2nc3c4cccc(Br)c4nc(N[C@@H]4CNCCNC4=O)n3n2)cnn1C [Example 979, (6R)-6-{[7-bromo-2-(1,5-dimethyl-1H-pyrazol-4-yl)[1,2,4]triazolo[1,5-c]quinazolin-5-yl]amino}-1,4-diazepan-5-one] |
| 6.35 | 5.22e-09 | CCn1cc(-c2nc3c4cccc(Br)c4nc(N[C@@H]4CNCCNC4=O)n3n2)cn1 [Example 980, (6R)-6-{[7-bromo-2-(1-ethyl-1H-pyrazol-4-yl)[1,2,4]triazolo[1,5-c]quinazolin-5-yl]amino}-1,4-diazepan-5-one] |
| 5.95 | 2.69e-09 | CC(C)n1cc(-c2nc3c4cccc(Br)c4nc(N[C@@H]4CNCCNC4=O)n3n2)cn1 [Example 981, (6R)-6-({7-bromo-2-[1-(propan-2-yl)-1H-pyrazol-4-yl][1,2,4]triazolo[1,5-c]quinazolin-5-yl}amino)-1,4-diazepan-5-one] |
| 13.2 | 8.61e-09 | CNCCNC(=O)[C@@H](C)Nc1nc2c(Br)cccc2c2nc(-c3ccc(OC)cc3)nn12 [Example 987, N^2-[7-bromo-2-(4-methoxyphenyl)[1,2,4]triazolo[1,5-c]quinazolin-5-yl]-N-[2-(methylamino)ethyl]-D-alaninamide-hydrogen chloride (1/1)] |
| 13.8 | 1.49e-08 | COc1ccc(-c2nc3c4ccccc4nc(N[C@H](C)C(=O)N4CCNCC4)n3n2)cc1 [Example 988, (2R)-2-{[2-(4-methoxyphenyl)[1,2,4]triazolo[1,5-c]quinazolin-5-yl]amino}-1-(piperazin-1-yl)propan-1-one-hydrogen chloride (1/1)] |
| 7.74 | 3.94e-09 | COc1ccc(-c2nc3c4cccc(Br)c4nc(N[C@H](C)C(=O)NCCN4CCNCC4)n3n2)cc1 [Example 992, N^2-[7-bromo-2-(4-methoxyphenyl)[1,2,4]triazolo[1,5-c]quinazolin-5-yl]-N-[2-(piperazin-1-yl)ethyl]-D-alaninamide-hydrogen chloride (1/2)] |
